In ChEMBL document CHEMBL6083203, “Discovery and optimisation of pyrazolo[1,5-a]pyrimidines as aryl hydrocarbon receptor antagonists” (RSC Med Chem, 2024) one finds IC50 and inhibition data, which are given here for 10 compounds.

For assay [1], the target named is T1, Aryl hydrocarbon receptor (Homo sapiens, UniProt P35869).
T1 sequence (P35869 whole entry): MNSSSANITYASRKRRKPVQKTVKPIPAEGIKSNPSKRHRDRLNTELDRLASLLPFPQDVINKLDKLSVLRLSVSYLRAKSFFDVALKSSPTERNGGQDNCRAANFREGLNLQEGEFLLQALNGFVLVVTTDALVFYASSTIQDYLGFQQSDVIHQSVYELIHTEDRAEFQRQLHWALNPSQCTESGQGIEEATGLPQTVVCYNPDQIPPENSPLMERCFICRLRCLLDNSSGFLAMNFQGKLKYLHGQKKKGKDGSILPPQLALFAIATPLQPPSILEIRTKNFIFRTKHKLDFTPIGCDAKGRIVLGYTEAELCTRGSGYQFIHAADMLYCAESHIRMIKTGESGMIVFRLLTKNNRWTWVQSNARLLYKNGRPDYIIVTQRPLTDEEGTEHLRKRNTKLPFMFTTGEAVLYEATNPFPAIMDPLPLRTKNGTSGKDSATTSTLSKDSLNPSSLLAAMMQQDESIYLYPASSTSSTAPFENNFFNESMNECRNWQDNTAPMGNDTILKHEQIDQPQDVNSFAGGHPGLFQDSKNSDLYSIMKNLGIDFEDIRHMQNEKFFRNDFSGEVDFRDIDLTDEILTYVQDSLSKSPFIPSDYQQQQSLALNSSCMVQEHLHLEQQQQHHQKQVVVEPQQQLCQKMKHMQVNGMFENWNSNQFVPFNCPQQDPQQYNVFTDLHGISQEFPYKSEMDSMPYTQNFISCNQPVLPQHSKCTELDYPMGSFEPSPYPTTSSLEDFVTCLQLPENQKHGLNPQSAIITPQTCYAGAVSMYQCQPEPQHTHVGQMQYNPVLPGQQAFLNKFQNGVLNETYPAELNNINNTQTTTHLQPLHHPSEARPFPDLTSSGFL
Description: Antagonist activity at AHR receptor in human Huh-7 cells transfected with CYP1A1 regulated luciferase reporter gene assessed as inhibition of TCDD-induced receptor activation incubated for 20 hrs by dual luciferase assay

Assay [2] deals with T1, Aryl hydrocarbon receptor. The following applies: Huh-7, human, 20 h, read-out: Activity.
Description: Antagonist activity at AHR receptor in human Huh-7 cells transfected with CYP1A1 regulated luciferase reporter gene assessed as inhibition of TCDD-induced receptor activation at 25 uM incubated for 20 hrs by dual luciferase assay relative to control
In assay [3] the target is T1, Aryl hydrocarbon receptor. Conditions: Huh-7, human, 20 h, read-out: Activity. This is another data set of the same source.
Description: Antagonist activity at AHR receptor in human Huh-7 cells transfected with CYP1A1 regulated luciferase reporter gene assessed as inhibition of receptor activation at 25 uM incubated for 20 hrs by dual luciferase assay relative to control
Assay [4] addresses T2, Aryl hydrocarbon receptor (Mus musculus, UniProt P30561).
T2 sequence (P30561 whole entry): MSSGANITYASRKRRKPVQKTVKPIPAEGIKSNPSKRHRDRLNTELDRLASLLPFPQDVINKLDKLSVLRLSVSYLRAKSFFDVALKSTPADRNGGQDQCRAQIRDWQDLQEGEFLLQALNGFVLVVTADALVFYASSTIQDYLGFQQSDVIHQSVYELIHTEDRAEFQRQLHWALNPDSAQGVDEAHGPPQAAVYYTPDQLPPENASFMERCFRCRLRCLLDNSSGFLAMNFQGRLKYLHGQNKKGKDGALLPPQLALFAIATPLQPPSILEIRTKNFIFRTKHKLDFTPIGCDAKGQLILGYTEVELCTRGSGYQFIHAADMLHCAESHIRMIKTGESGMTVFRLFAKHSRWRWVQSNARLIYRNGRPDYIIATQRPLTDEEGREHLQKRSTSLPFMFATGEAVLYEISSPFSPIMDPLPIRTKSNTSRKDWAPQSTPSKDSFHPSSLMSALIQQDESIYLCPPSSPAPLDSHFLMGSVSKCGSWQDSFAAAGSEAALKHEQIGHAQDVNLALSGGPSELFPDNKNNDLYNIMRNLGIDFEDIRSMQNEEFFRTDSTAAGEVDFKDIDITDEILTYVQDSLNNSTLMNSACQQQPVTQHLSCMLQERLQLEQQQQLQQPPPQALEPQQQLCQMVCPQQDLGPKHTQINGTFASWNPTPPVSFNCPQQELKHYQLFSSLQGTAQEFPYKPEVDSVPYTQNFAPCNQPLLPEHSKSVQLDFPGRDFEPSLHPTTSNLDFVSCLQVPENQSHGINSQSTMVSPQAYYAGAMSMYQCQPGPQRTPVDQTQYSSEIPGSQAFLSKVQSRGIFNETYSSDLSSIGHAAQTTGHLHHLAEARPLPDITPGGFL
Kind of assay: Antagonist activity at AhR receptor in TCDD-stimulated mouse CD34-positive cell assessed as decrease in CYP1B1 mRNA expression.

With `CS(=O)(=O)Nc1ccccc1-c1cnn2c(NCCOCCO)cc(-c3ccccc3)nc12`, half-maximal inhibition in assay [1] (IC50) required 654 nM.

As to `CC(C)(C)c1cccc(-c2cnn3c(NCCOCCO)cc(-c4ccccc4)nc23)c1`, in assay [1], half-maximal inhibition (IC50) required 29500 nM.

`OCCOCCNc1cc(-c2ccccc2)nc2c(-c3ccccc3OC(F)(F)F)cnn12` registered an IC50 in assay [1] of 396 nM.

For the compound `C=CCn1c(SC(C)C(=O)NC(N)=O)nnc1-c1cc2c(s1)CCC(C(C)(C)C)C2` (configuration not stated), the inhibition at 25 µM in assay [2] was found to be 21%; in assay [3], 1.4%.

In turn, `COC(=O)c1ccccc1-c1cnn2c(NCCOCCO)cc(-c3ccccc3)nc12` returned an IC50 in assay [1] of 359 nM.

In turn, `c1ccc(-c2cc(Nc3cnc[nH]3)n3ncc(-c4ccccc4)c3n2)cc1` gave an IC50 in assay [1] of 121 nM.

In the case of `Cc1ccc(-c2cc(NCCOCCO)n3ncc(-c4ccccc4)c3n2)cc1`, it took 189 nM to reach half-maximal inhibition in assay [1] (IC50).

`NC(=O)C1CN(C(=O)c2cc(-c3ccc(Cl)cc3)nn2-c2ccccc2)c2ccccc2O1` (configuration not stated): the results for the inhibition at 25 µM in assay [2] and in assay [3] were 23.6% and 28%, respectively.

On to `CC(C)n1cnc2c(NCCc3ccc(O)cc3)nc(-c3csc4ccccc34)nc21`, for which the IC50 in assay [4] was determined as 127 nM.

Compound `COc1ccccc1-c1cnn2c(NCCOCCO)cc(-c3ccccc3)nc12` registered an IC50 in assay [1] of 320 nM.

What is called IC50 is the concentration needed to halve the response being measured.
